Values quoted from earlier work in patent US20130101864A1, “Multifunctional Long-Acting Rust-Proof Film and Manufacturing Method Thereof” (Zhejiang Great Southeast Packaging Co., Ltd., priority 2010, published 2013).

Assays:
[1] = no harmful physiological toxicity on human body

solubility in organic solvents (alcohol, benzene, toluene, chloroform and dimethylformamide): soluble
solubility in water (water): slightly soluble
SMILES: c1ccc2[nH]nnc2c1 [Benzotriazole]
toxicity [1]: non-toxic
